Data from ChEMBL document CHEMBL1148963, “Four new eudesmanes from Caragana intermedia and their biological activities” (J Nat Prod, 2004).
≈ marks a conversion by molar mass, not a printed value.

Assays:
[1] = test system: Human immunodeficiency virus 1; test: Antiviral activity against HIV1 3B infected in human MT2 cells; type: functional, organism-based; conditions: Human immunodeficiency virus 1, 3B
C2C12 = test: Increase in glucose consumption in mouse C2C12 cells assessed as improved glucose transformation; type: functional, cell-based
Pyricularia oryzae = test: Antimicrobial activity against Pyricularia oryzae P-2b; type: functional

C=C1CC[C@@H](O)[C@]2(C)CC[C@H](C(C)C)[C@@H](O)[C@H]12
IC50 [1]: 10 µg/mL (≈ 42 µM)

C=C1CC[C@@H](O)[C@]2(C)CC[C@@H](C(C)C)C[C@@]12O
IC50 (C2C12): 10.7 µg/mL (≈ 44.9 µM) | MIC (Pyricularia oryzae): 20 µg/mL (≈ 83.9 µM)

C=C1CC[C@@H](O)[C@]2(C)CC[C@](O)(C(C)C)C[C@@H]12
MIC (Pyricularia oryzae): 16 µg/mL (≈ 67.1 µM)

C=C1CC[C@@H](O)[C@]2(C)CC[C@@](O)(C(C)C)C[C@@H]12
MIC (Pyricularia oryzae): 12 µg/mL (≈ 50.3 µM)
